In paper PMC11440508, “Dually Labeled Neurotensin NTS1R Ligands for Probing Radiochemical and Fluorescence-Based Binding Assays” (Journal of Medicinal Chemistry, 2024):
Values joined by “and” are separate entries in the source; they are usually repeats but may differ in a detail not shown here. Equal entries are not always repeated.

Columns and labels:
NTS1R = NTS1R (Homo sapiens, UniProt P30989); experiment: High-content imaging (HCI) association and dissociation kinetics, adherent CHO-hNTS1R cells; format: binding; conditions: for koff: 23 °C, read-out: koff [min^–1] (converted); for kon: calculated from kobs, koff and ligand concentration, read-out: kon [min^–1 nM^–1] (converted)
Protocol: CHO-hNTS1R or HT-29 cells were seeded one day prior to the experiment into the inner 60 wells of a black clear-bottom 96-well plate (Greiner 655090, Greiner Bio-One) at a concentration of 25,000 cells/well and 35,000 cells/well, respectively. On the day of the assay, the medium was removed by suction and the cells were washed with DPBS1 (50 μL). After this step, DPBS1 (180 or 200 μL) containing the nuclear dye Hoechst H33342 (2 μg/mL) was added. This solution also contained the fluorescent ligand (kinetic studies, competition binding experiments), or the fluorescent ligand was added separately (saturation binding experiments). In the case of competition binding experiments, the nonlabeled receptor ligands were also added separately (details given below). All samples were incubated at 23 ± 1 °C in the dark under gentle shaking (incubation times are specified below). The final volume per well was 200 μL. Shortly before subjecting the plate to the plate reader for image acquisition, the liquid was removed by suction and DPBS1 (100 μL) was added. Images were acquired using an IX Micro plate reader (Molecular Devices, Sunnyvale, CA) using a 20× Plan Fluor ELWD objective, a xenon lamp light source and DAPI and TRITC excitation/emission filter cubes for imaging nuclear and fluorescent ligand staining, respectively. […] Two sites/well were measured throughout. Images were analyzed by granularity analysis (2–3 μm diameter granules; MetaXpress 5.3, Molecular Devices, San Diego, CA) and the integrated intensity (pixel intensity × granule area) per cell was used as the raw measurement of fluorescent ligand binding. […]
After the initial washing step, 200 μL of DPBS1 containing the fluorescent ligand 13 or 18 (2.5 nM) and DAPI were added to determine total binding. […] The samples of the different time points were prepared in reversed order (longest incubation time first, shortest incubation time last) so that the cells of all samples could be washed and measured approximately at the same time (note: the measurement time for 60 wells was <5 min). […] Specific binding data, obtained by subtracting triplicate mean values of unspecific binding from triplicate mean values of total binding, were plotted against the time and analyzed by a three-parameter equation describing an exponential rise to a maximum (one-phase association, Y0 constrained to zero, GraphPad Prism 5) to yield the observed association rate constant kobs. […]
After initial washing of the cells, 200 μL of DPBS1 containing the fluorescent ligand 13 or 18 (2.5 nM) and DAPI were added to the wells (determination of total binding). […] The plate was directly subjected to the plate reader (no washing step). […]

[1] = Recovery from human plasma/PBS 1:2 v/v; format: in vitro ADME; parameters: recovery compd. (%): dose or concentration left out as unconfirmed; conditions: for recovery compd. (%): human plasma/PBS 1:2 v/v
Protocol: The proteolytic stabilities of 13 and 18 were investigated in human blood plasma/PBS (136.9 mM NaCl, 2.68 mM KCl, 5.62 mM Na2HPO4, 1.09 mM NaH2PO4, and 1.47 mM KH2PO4, pH 7.4) 1:2 v/v according to a described procedure[38] with the following modifications: 5 mM stock solutions in EtOH/10 mM aqueous HCl 1:1 v/v were used for the addition of the peptides to plasma/PBS 1:2 v/v. As the RP-HPLC purity of 1-methyl-D-Trp, used as internal standard (IS), was <95%, the compound was purified by preparative HPLC to give a purity of >99%. […] Samples were analyzed using the same RP-HPLC system and conditions as described under Analytical HPLC with the following gradient: 0–6 min: acetonitrile/0.04% aqueous TFA 10:90–21:79, 6–12 min: 21:79–40:60, 12–13 min: 40:60–95:5, 13–16 min: 95:5 (isocratic). Data analysis was based on UV detection at 220 nm. Reference samples, representing 100% recovery, were prepared in quadruplicate. Recovery ratios were obtained by dividing the recovery of the peptide by the recovery of IS for each individual sample (n = 4). The obtained recoveries and the recovery ratios are summarized in Table S2, Supporting Information.

Sequence of NTS1R (P30989 whole entry): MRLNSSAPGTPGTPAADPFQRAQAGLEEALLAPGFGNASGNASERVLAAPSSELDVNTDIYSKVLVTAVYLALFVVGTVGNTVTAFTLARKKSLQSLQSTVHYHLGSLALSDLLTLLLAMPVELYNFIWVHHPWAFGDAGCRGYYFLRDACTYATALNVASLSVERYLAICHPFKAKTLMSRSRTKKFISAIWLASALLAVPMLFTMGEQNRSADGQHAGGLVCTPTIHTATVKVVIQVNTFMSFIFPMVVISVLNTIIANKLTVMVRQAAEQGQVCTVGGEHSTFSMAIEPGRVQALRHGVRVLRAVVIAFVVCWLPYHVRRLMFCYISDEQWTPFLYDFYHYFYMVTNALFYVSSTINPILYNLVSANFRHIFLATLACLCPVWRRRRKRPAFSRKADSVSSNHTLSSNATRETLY

## CCC(=O)NCCCCNC(=O)N=C(N)NCCC[C@H](NC(=O)[C@@H]1CCCN1C(=O)[C@@H](NC(=O)CCc1cn(CCCNC(=O)c2ccc(-c3c4ccc(=[N+](C)C)cc-4oc4cc(N(C)C)ccc34)c(C(=O)[O-])c2)nn1)C1CCNCC1)C(=O)N[C@@H](CCCNC(=N)N)C(=O)N1CCC[C@H]1C(=O)N[C@@H](Cc1ccc(O)cc1)C(=O)N[C@H](C(=O)N[C@@H](CC(C)C)C(=O)O)[C@@H](C)CC [Compound 13, N^α-(3-(1-N-((1-Carboxylato-2-(6-(dimethylamino)-3-(dimethyliminio)-3H-xanthen-9-yl)phen-5-yl)1-oxomethyl)aminoprop-3-yl-1H-1,2,3-triazol-4-yl)propanoyl)-2-(piperidin-4-yl)-Gly-Pro-N^ω-[(4-(N-propanoyl)aminobutyl)aminocarbonyl]Arg-Arg-Pro-Tyr-Ile-Leu Tris(hydrotrifluoroacetate)]
NTS1R
  koff: 0.000733 s⁻¹
  kon: 267000 M⁻¹ s⁻¹
[1]; individual experiments
  recovery compd. (%): 75% and 102% and 104%

## CCC(=O)NCCCCNC(=O)NC(=N)NCCC[C@H](NC(=O)[C@@H]1CCCN1C(=O)[C@@H](NC(=O)CCc1cn(CCCNC(=O)CCC#Cc2ccc3c(c2)C(C)(C)C2=C4C=C5C6=[N+](CCC5OC4CCN23)c2ccc(S(=O)(=O)[O-])cc2C6(C)C)nn1)C1CCNCC1)C(=O)N[C@@H](CCCNC(=N)N)C(=O)N1CCC[C@H]1C(=O)N[C@H](C(=O)N[C@H](C(=O)N[C@@H](CC(C)C)C(=O)O)[C@@H](C)CC)C(C)(C)c1ccc(O)cc1 (stereo partly drawn) [Compound 18, N^α-(3-(N-(1-(8-Sulfonato-5,5,27,27-tetramethyl-16-oxa-20-aza-12-azoniaheptacyclo[15.11.0.03,15.04,12.06,11.020,28.021,26]octacosa-1(28),2,4(12),6(11),7,9,21(26),22,24-nonaen-24-yl)-5-oxopentyn-5-yl)-1-aminoprop-3-yl-1H-1,2,3-triazol-4-yl)propanoyl)-2-(piperidin-4-yl)-Gly-Pro-N^ω-[(4-(N-propanoyl)aminobutyl)aminocarbonyl]Arg-Arg-Pro-β,β-dimethyl-L-Tyr-Ile-Leu Tris(hydrotrifluoroacetate)]
NTS1R
  koff: 0.00085 s⁻¹
  kon: 135000 M⁻¹ s⁻¹
[1]; four independent experiments
  mean recovery ratio ± SEM: 0.99 ± 0.02
[1]; individual experiments
  recovery compd. (%): 98% and 72% and 65% and 70%
[1]; individual experiments, internal standard 1-methyl-D-tryptophan
  ratio of peptide recovery over recovery of internal standard: 1.01 (2×) and 1.03 and 0.91
